Source: US6335339B1, “Triazine antiviral compounds” (Scriptgen Pharmaceuticals, Inc., priority 1998, dated 2002)

Assay: neutral red dye uptake cytotoxicity
Type: cell-based
Settings: human, 2.2.15 cells (confluent cultures), 9 days treatment, read-out: 50% Cell Death CC50
How it was run: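 Confluent 2.2.15 cultures, same conditions as antiviral assay, treated daily for 9 days with 4 concentrations (3.3-fold dilutions), triplicate wells. 24 hours after the final dose, cells stained 30 minutes with 0.01% neutral red, dye extracted and A510 read; values as % of untreated cultures, CC50 as 50% cell death.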

CC(C)(C)Nc1nc(NCc2ccccc2)nc(N/N=C/c2ccccc2F)n1 [Compound 93, 2-fluorobenzaldehyde N-[4-(benzylamino)-6-(tert-butylamino)-1,3,5-triazin-2-yl]hydrazone]
CC50 at 9 days: 54 µM
